Reference: PubChem BioAssay AID1259407 (Chemical Carcinogenesis Research Information System (CCRIS), 2018)
Activity calls are given as the source filed them. The rule behind the calls is not given here.

Tested on: CCRIS mutagenicity, Ames/micronucleus/aberration tests
Experiment: CCRIS mutagenicity studies
[1] = Test System: AMES SALMONELLA TYPHIMURIUM, Strain/Indicator: TA98, Metabolic Activation: NONE, Method: STANDARD PLATE
[2] = Test System: AMES SALMONELLA TYPHIMURIUM, Strain/Indicator: TA100, Metabolic Activation: NONE, Method: STANDARD PLATE

Measured: mutagenic call

C=CCC1(C(C)C#CCC)C(=O)N=C(O)N(C)C1=O (configuration not stated)
inactive: Test System: AMES SALMONELLA TYPHIMURIUM, Strain/Indicator: TA97, Metabolic Activation: HAMSTER, LIVER, S-9, AROCLOR 1254 (10 OR 30%), Method: PREINCUBATION inactive; negative | Test System: AMES SALMONELLA TYPHIMURIUM, Strain/Indicator: TA97, Metabolic Activation: NONE, Method: PREINCUBATION inactive; negative | Test System: AMES SALMONELLA TYPHIMURIUM, Strain/Indicator: TA97, Metabolic Activation: RAT, LIVER, S-9, AROCLOR 1254 (10 OR 30%), Method: PREINCUBATION inactive; negative | Test System: AMES SALMONELLA TYPHIMURIUM, Strain/Indicator: TA98, Metabolic Activation: HAMSTER, LIVER, S-9, AROCLOR 1254 (10 OR 30%), Method: PREINCUBATION inactive; negative | Test System: AMES SALMONELLA TYPHIMURIUM, Strain/Indicator: TA98, Metabolic Activation: NONE, Method: PREINCUBATION inactive; negative | Test System: AMES SALMONELLA TYPHIMURIUM, Strain/Indicator: TA98, Metabolic Activation: RAT, LIVER, S-9, AROCLOR 1254 (10 OR 30%), Method: PREINCUBATION inactive; negative | Test System: AMES SALMONELLA TYPHIMURIUM, Strain/Indicator: TA100, Metabolic Activation: HAMSTER, LIVER, S-9, AROCLOR 1254 (10 OR 30%), Method: PREINCUBATION inactive; negative | Test System: AMES SALMONELLA TYPHIMURIUM, Strain/Indicator: TA100, Metabolic Activation: NONE, Method: PREINCUBATION inactive; negative | Test System: AMES SALMONELLA TYPHIMURIUM, Strain/Indicator: TA100, Metabolic Activation: RAT, LIVER, S-9, AROCLOR 1254 (10 OR 30%), Method: PREINCUBATION inactive; negative | Test System: AMES SALMONELLA TYPHIMURIUM, Strain/Indicator: TA1535, Metabolic Activation: HAMSTER, LIVER, S-9, AROCLOR 1254 (10 OR 30%), Method: PREINCUBATION inactive; negative | Test System: AMES SALMONELLA TYPHIMURIUM, Strain/Indicator: TA1535, Metabolic Activation: NONE, Method: PREINCUBATION inactive; negative | Test System: AMES SALMONELLA TYPHIMURIUM, Strain/Indicator: TA1535, Metabolic Activation: RAT, LIVER, S-9, AROCLOR 1254 (10 OR 30%), Method: PREINCUBATION inactive; negative

Cl/C=C(/Cl)c1c(Cl)c(Cl)c(Cl)c(Cl)c1Cl
inactive: [1] inactive; negative | Test System: AMES SALMONELLA TYPHIMURIUM, Strain/Indicator: TA98, Metabolic Activation: RAT, LIVER, S-9, AROCLOR 1254, Method: STANDARD PLATE inactive; negative | [2] inactive; negative | Test System: AMES SALMONELLA TYPHIMURIUM, Strain/Indicator: TA100, Metabolic Activation: RAT, LIVER, S-9, AROCLOR 1254, Method: STANDARD PLATE inactive; negative

C=CCSSSCC=C
inactive: Test System: UDS RAT HEPATOCYTES, Strain/Indicator: THY INCORP, Metabolic Activation: NONE, Method: AUTORADIOGRAPHY inactive; negative

CC(C)OC(=O)C(C)(C)Oc1ccc(C(=O)c2ccc(Cl)cc2)cc1
inactive: [1] inactive; negative | Test System: AMES SALMONELLA TYPHIMURIUM, Strain/Indicator: TA98, Metabolic Activation: RAT, LIVER, S-9, PHENOBARBITAL AND 5,6-BENZOFLAVONE, Method: STANDARD PLATE inactive; negative | [2] inactive; negative | Test System: AMES SALMONELLA TYPHIMURIUM, Strain/Indicator: TA100, Metabolic Activation: RAT, LIVER, S-9, PHENOBARBITAL AND 5,6-BENZOFLAVONE, Method: STANDARD PLATE inactive; negative | Test System: AMES SALMONELLA TYPHIMURIUM, Strain/Indicator: TA1535, Metabolic Activation: NONE, Method: STANDARD PLATE inactive; negative | Test System: AMES SALMONELLA TYPHIMURIUM, Strain/Indicator: TA1535, Metabolic Activation: RAT, LIVER, S-9, PHENOBARBITAL AND 5,6-BENZOFLAVONE, Method: STANDARD PLATE inactive; negative | Test System: AMES SALMONELLA TYPHIMURIUM, Strain/Indicator: TA1537, Metabolic Activation: NONE, Method: STANDARD PLATE inactive; negative | Test System: AMES SALMONELLA TYPHIMURIUM, Strain/Indicator: TA1537, Metabolic Activation: RAT, LIVER, S-9, PHENOBARBITAL AND 5,6-BENZOFLAVONE, Method: STANDARD PLATE inactive; negative | Test System: E. COLI, Strain/Indicator: WP2 UVRA, Metabolic Activation: NONE, Method: STANDARD PLATE inactive; negative | Test System: E. COLI, Strain/Indicator: WP2 UVRA, Metabolic Activation: RAT, LIVER, S-9, PHENOBARBITAL AND 5,6-BENZOFLAVONE, Method: STANDARD PLATE inactive; negative
